The values that follow come from patent publication US20260191845A1, “PYRIDINE-2-THIOL 1-OXIDE DERIVATIVES AND THEIR USE FOR TREATMENT OF MAMMALIAN INFECTIONS CAUSED BY MYCOBACTERIUM OR FUNGI” (priority 2022, published 2026).

Several values for one entry are separate records, joined by “and”; a condition that tells them apart may be missing. Equal entries are not always repeated.

In one series the test system is Candida albicans H8. Briefly: Antifungal agar well diffusion assay. Conditions: 20 μL water solution in 4 mm well.
Series [1] is described as follows: Pharmacokinetic study in mice. Format: in vivo, Balb/C male mice. The settings on record: 100 mg/kg intragastric, saline solution. The procedure:
The pharmacokinetics of the compound 2 has been studied white Balb/C male mice. 27 animals with average body weight of 20 g were selected for the study. The animals were kept on standard vivarium ration with dry pelleted feed before the experiment. All the test animals had free access to water but were deprived of food for 1 hour before administration of the compound. This regimen was continued for another hour after the administration.
Compound in a dose of 100 mg/kg of body weight was administered as 0.5 mL of saline solution by intragastric intubation.
The animals were euthanized by decapitation for blood and brain sampling. Blood and brain samples (3 animals per time point) were taken at 15, 30, 60, 120, 240, 360 1440 min after administration for pharmacokinetic evaluation. Blood was collected in heparinized tubes and centrifuged at 3500 RPM. Plasma was separated from formed elements and immediately frozen at −20° C. in freezer. This storage continued before transferring of plasma for analysis. Serum from 6 untreated animals was used as control and for equipment calibration with compound. Mice brain was immediately frozen at −120° C.

Series [2] deals with Sporobolomyces salmonicolor. Briefly: Antifungal agar well diffusion assay. Conditions: 20 μL water solution in 4 mm well.
Protocol: (§3) The well diffusion test was performed using Casitone agar. The inoculum used was prepared using the Candida or Aspergillus strains from a 24-hour culture on Sabouraud dextrose agar, a suspension was made in a sterile saline solution (0.85%). The turbidity of the suspension was adjusted with a spectrophotometer at 530 nm to obtain a final concentration to match that of a 0.5 McFarland standard (0.5-2.5×10^3). 20 mL of Bacto-casitone were melted, cooled to 55° C. and then inoculated with 1 mL of the organism suspension. The inoculated agar was poured into the assay plate (9 cm in diameter) and allowed to cool down on a leveled surface.
Series [3] concerns M. abscessus MDR clinical isolate 1. Nature of the series: REMA MIC90, broad spectrum of microorganisms. The format is cell-based. The settings on record: Mycobacteroides abscessus, M. abscessus MDR clinical isolate 1, resistant to amikacin, clarithromycin, doxycycline, bedaquiline and others, read-out: MIC to Compound 2. The procedure:
(§1) To determine the in vitro activity of compounds (MIC90) against Mycobacterium abscessus ATCC 19977, the resazurin reduction microplate assays (REMA) is performed. Briefly, serial 2-fold dilutions of drug are prepared in 96-well microtiter plates (Fluoronunc, Thermo Fisher, Waltham, MA, USA) in 100 μL of Middlebrook 7H9 medium (Difco), supplemented with 10% OADC without addition of Tween 80. Then, M. abscessus log-phase cultures were diluted (OD600=0.02) and added in the 96-well microtiter plate. Growth controls containing no compound and sterile controls without inoculum are also included. Also, a compound known to be active against M. abscessus growth is included as positive control. After 1 day of incubation at 37° C., 10 μL of resazurin (0.025% w/v) is added to each well, and bacterial viability is assessed after a further 24 h of incubation using a Fluoroskan™ Microplate Fluorometer (Thermo Fisher Scientific, Waltham, MA, USA; excitation=544 nm, emission=590 nm). Bacterial viability was calculated as a percentage of resazurin turnover in the absence of compound (MIC90). […]. Results are expressed as the average of at least three independent replicates and presented on the following Table 1.
(§2) By using the same procedure, the compound according to Example B (compound 2) was tested on broad spectrum of microorganisms and the corresponding results are presented in the below Table 2.

In series [4] the test system is M. abscessus clinical isolate n. 8. Briefly: REMA MIC90, broad spectrum of microorganisms. Format: cell-based. The settings on record: Mycobacteroides abscessus, M. abscessus clinical isolate n. 8, resistant to moxifloxacin, doxycycline, read-out: MIC to Compound 2. Here is the method:
as §1, §2

Series [5] concerns M. abscessus clinical isolate n. 9. Briefly: REMA MIC90, broad spectrum of microorganisms. Format: cell-based. Conditions: Mycobacteroides abscessus, M. abscessus clinical isolate n. 9, resistant to clarithromycin, moxifloxacin, doxycycline, read-out: MIC to Compound 2. The procedure:
as §1, §2

The test system of series [6] is M. avium clinical isolate n. 4. Nature of the series: REMA MIC90, broad spectrum of microorganisms. The format is cell-based. Conditions: Mycobacterium avium, M. avium clinical isolate n. 4, resistant to linezolid and Moxifloxacin, read-out: MIC to Compound 2. The procedure:
as §1, §2

For series [7], the system named is M. avium clinical isolate n. 2. Briefly: REMA MIC90, broad spectrum of microorganisms. Format: cell-based. Conditions: Mycobacterium avium, M. avium clinical isolate n. 2, resistant to linezolid, read-out: MIC to Compound 2. The procedure: as §1, §2
Series [8] concerns M. abscessus clinical isolate n. 6. Nature of the series: REMA MIC90, broad spectrum of microorganisms. Format: cell-based. Conditions: Mycobacteroides abscessus, M. abscessus clinical isolate n. 6, resistant to clarithromycin, moxifloxacin, doxycycline, linezolid, read-out: MIC to Compound 2. Here is the method:
as §1, §2

The test system of series [9] is M. abscessus MDR clinical isolate 2 (from CF patient). Briefly: REMA MIC90, broad spectrum of microorganisms. The format is cell-based. Conditions: Mycobacteroides abscessus, resistant to amikacin, amoxicillin, imipenem, linezolid and others, read-out: MIC to Compound 2. The procedure: as §1, §2
Series [10] deals with M. abscessus clinical isolate n. 7. Nature of the series: REMA MIC90, broad spectrum of microorganisms. The format is cell-based. The settings on record: Mycobacteroides abscessus, M. abscessus clinical isolate n. 7, resistant to clarithromycin, amikacin, moxifloxacin, doxycycline, read-out: MIC to Compound 2. Here is the method:
as §1, §2

The subject of series [11] is M. avium clinical isolate n. 3. Briefly: REMA MIC90, broad spectrum of microorganisms. The settings on record: Mycobacterium avium, M. avium clinical isolate n. 3, resistant to linezolid, read-out: MIC to Compound 2. The format is cell-based. The procedure: as §1, §2
Series [12] concerns MRSA Staphylococcus aureus clinical isolate. Briefly: REMA MIC90, broad spectrum of microorganisms. Format: cell-based. The settings on record: read-out: MIC to Compound 2. The procedure: as §1, §2
Series [13] can be described thus: Subacute toxicity, 14 days per oral administration in mice. Format: in vivo. The procedure: Acute and subacute toxicity of compound 2 was experimentally studied for intragastric administration in white mice. […] The compound was solubilized in saline to be administrated to animals.
Evaluation of subacute toxicity of compound 2 observation time after 14 days per oral administration.
Experimental animals: 14 C57BL/6 male white mice, 7 weeks old, weight 20-22 g.
The following experimental procedure was used: • administration route of the compound: per os; • dosage 50 mg/kg once a day for 14 days; • volume introduced into 0.3 ml/20 g (15 ml/kg); • data recorded: behavior, weight changes, rectal temperature, mortality.

Another series relates to M. massiliense 2005-0524. Nature of the series: REMA MIC90, broad spectrum of microorganisms. The format is cell-based. Conditions: Mycobacteroides abscessus, 20050524, M. massiliense 2005-0524, Wild-type, read-out: MIC to Compound 2.
For the next series, the system named is M. bolletii 1999-0888. Nature of the series: REMA MIC90, broad spectrum of microorganisms. Format: cell-based. Conditions: Mycobacteroides abscessus, 19990888, M. bolletii 1999-0888, Wild-type, read-out: MIC to Compound 2.
A further series deals with Penicillium notatum. Briefly: Antifungal agar well diffusion assay. Conditions: 20 μL water solution in 4 mm well.
The subject of series [14] is M. avium subsp. avium Chester ATCC15769. Nature of the series: REMA MIC90, broad spectrum of microorganisms. Format: cell-based. The settings on record: Mycobacterium avium, M. avium subsp. avium Chester ATCC15769, Wild-type, read-out: MIC to Compound 2.
Setting [15] is: mice, per os, 50 mg/kg once a day for 14 days.

Protocol for Candida albicans H8: as §3
Protocol for Penicillium notatum: as §3

`CCOC(=O)c1ccc([S-])[n+]([O-])c1.[Na+]` [Compound 2, Sodium 5-(ethoxycarbonyl)pyridine-2-thiolate 1-oxide]: the “Inhibition Zone of Test Microorganism” value is given as 53 mm in the series with Candida albicans H8, 46 mm in [2] and 15 mm in the series with Penicillium notatum. The Bioavailability result in series [1] is “high bioavailability”. In addition, the MIC in series [3], in series [4], in series [5], in [6], in series [7] and in series [8] was 500 µg/mL throughout. Moreover, the MIC in series [9] worked out at 500 µg/mL; in [10], 500 µg/mL; in series [11] it was 500 µg/mL; in [12], 8000 µg/mL; in the series on M. massiliense 2005-0524, 500 µg/mL; in the series with M. bolletii 1999-0888, 500 µg/mL. Also, in series [14], the MIC amounted to 500 µg/mL. Also, the “Weight of mice, Experimental group, 28 Jan. 2021, M ± m” value in series [13] (group mean, after 14 days of 50 mg/kg per os daily) amounted to 21.13 ± 0.308 gramm. Moreover, the “Weight of mice, Experimental group, 13 Jan. 2021, M ± m” value in series [13] (group mean, start of 50 mg/kg per os daily treatment) stood at 20.71 ± 0.4 gramm. In addition, the “Weight of individual mice, Experimental group, 28 Jan. 2021” value in series [13] (individual mice, after 14 days of 50 mg/kg per os daily, 50 mg/kg) is 21.1 gramm and 19.5 gramm and 20.9 gramm and 21.7 gramm and 21.5 gramm (2×) and 22.4 gramm and 20.5 gramm. The “Weight of individual mice, Experimental group, 13 Jan. 2021” value in series [13] (individual mice, start of 50 mg/kg per os daily treatment, 50 mg/kg) was 20.1 gramm and 22.1 gramm and 19.2 gramm and 19.7 gramm and 20.9 gramm and 20.5 gramm and 22.8 gramm and 20.4 gramm. Also, in [13] (setting [15]), the “Subacute toxicity: general state and behavior” value is “did not cause changes in the general state and behavior of the mice”. The “Subacute toxicity: mass of mice, experimental vs control group” value in [13] (setting [15]) is on record as “No significant differences”. For the same compound, the “Subacute toxicity: animal death” value in [13] (mouse, in vivo, 50 mg/kg) is on record as “there were no cases of animal death”.
